The text below walks through data of ChEMBL document CHEMBL1275493, “Anti-human immunodeficiency virus type 1 activities of antimicrobial peptides derived from human and bovine cathelicidins” (Antimicrob Agents Chemother, 2008).

The structures appear in SMILES notation. Peptide text beside a SMILES is read from it.

The EC50 is the concentration giving half of the maximal effect. Low values mean an effect from little substance, high ones a need for much substance.

One data set deals with CEM-SS. Nature of the data set: Cytotoxicity against Human immunodeficiency virus 1 3B infected human CEM-SS cells. Type of data set: functional. As to conditions: read-out: TC50 (the source's name).
Data set [1] has as its system Human immunodeficiency virus 1. The data set can be described thus: Antiviral activity against Human immunodeficiency virus 1 3B infected in CEM-SS cells. Type of data set: functional, organism-based.
Data set [2] in a line: Therapeutic index, TC50 for Human immunodeficiency virus 1 3B infected human CEM-SS cells to EC50 for immunodeficiency virus 1 3B. It is filed as cell-based. The settings on record: CEM-SS cells infected with HIV-1 3B, read-out: TI.

On to `CC[C@H](C)[C@H](NC(=O)[C@H](CCCNC(=N)N)NC(=O)[C@H](CCCCN)NC(=O)[C@H](Cc1ccccc1)NC(=O)CN)C(=O)N[C@H](C(=O)N[C@@H](CCC(N)=O)C(=O)N[C@@H](CCCNC(=N)N)C(=O)N[C@@H](C(=O)N[C@@H](CCCCN)C(=O)N[C@@H](CC(=O)O)C(=O)N[C@@H](Cc1ccccc1)C(=O)N[C@@H](CC(C)C)C(=O)N[C@@H](CCCNC(=N)N)C(=O)N[C@@H](CC(N)=O)C(=O)N[C@@H](CC(C)C)C(=O)N[C@H](C(=O)O)C(C)C)[C@@H](C)CC)C(C)C`, for which, in the data set with CEM-SS, the CC50 came to 22.7 µM. For the same molecule, in data set [1], the EC50 is over 47.5 µM.
For `CC[C@H](C)[C@H](NC(=O)[C@H](CCCNC(=N)N)NC(=O)[C@H](CCCCN)NC(=O)[C@H](Cc1ccccc1)NC(=O)CN)C(=O)N[C@H](C(=O)N[C@@H](CCC(N)=O)C(=O)N[C@@H](CCCNC(=N)N)C(=O)N[C@@H](C(=O)N[C@@H](CCCCN)C(=O)N[C@@H](CC(=O)O)C(=O)N[C@@H](Cc1ccccc1)C(=O)N[C@H](CC(C)C)C(=O)N[C@@H](CCCNC(=N)N)C(=O)N[C@@H](CC(N)=O)C(=O)N[C@@H](CC(C)C)C(=O)N[C@H](C(=O)O)C(C)C)[C@@H](C)CC)C(C)C` the same measures were over 47.5 µM and over 47.5 µM.
For `CC[C@H](C)[C@H](NC(=O)CN)C(=O)N[C@@H](CCCCN)C(=O)N[C@@H](CCC(=O)O)C(=O)N[C@@H](C(=O)N[C@@H](CCCCN)C(=O)N[C@@H](CCCNC(=N)N)C(=O)N[C@H](C(=O)N[C@H](C(=O)N[C@@H](CCC(N)=O)C(=O)N[C@@H](CCCNC(=N)N)C(=O)N[C@H](C(=O)N[C@@H](CCCCN)C(=O)N[C@@H](CC(=O)O)C(=O)N[C@@H](Cc1ccccc1)C(=O)N[C@@H](CC(C)C)C(=O)N[C@@H](CCCNC(=N)N)C(=O)N[C@@H](CC(N)=O)C(=O)N[C@@H](CC(C)C)C(=O)N[C@H](C(=O)O)C(C)C)[C@@H](C)CC)C(C)C)[C@@H](C)CC)c1ccccc1`, the CC50 in the data set on CEM-SS is 7.3 µM. The molecule further came in with a concentration giving a half-maximal response (EC50) in data set [1] of over 40.6 µM.
The molecule `CC[C@H](C)[C@H](NC(=O)CN)C(=O)N[C@@H](CCCCN)C(=O)N[C@@H](CCC(=O)O)C(=O)N[C@@H](Cc1ccccc1)C(=O)N[C@@H](CCCCN)C(=O)N[C@@H](CCCNC(=N)N)C(=O)N[C@@H](CCC(=O)O)C(=O)N[C@@H](Cc1ccccc1)C(=O)N[C@@H](CCC(N)=O)C(=O)N[C@@H](CCCNC(=N)N)C(=O)N[C@H](C(=O)N[C@@H](CCCCN)C(=O)N[C@@H](CC(=O)O)C(=O)N[C@@H](Cc1ccccc1)C(=O)N[C@@H](CC(C)C)C(=O)N[C@@H](CCCNC(=N)N)C(=O)N[C@@H](CC(N)=O)C(=O)N[C@@H](CC(C)C)C(=O)N[C@H](C(=O)O)C(C)C)[C@@H](C)CC` (H-GIKEFKREFQRIKDFLRNLV-OH) [listing 1 of 2 here] showed an EC50 in data set [1] of 1.6 µM. Further, in data set [2], the selectivity ratio is 6.2.
Take `CC[C@H](C)[C@H](NC(=O)CN)C(=O)N[C@@H](CCCCN)C(=O)N[C@@H](CCC(=O)O)C(=O)N[C@@H](Cc1ccccc1)C(=O)N[C@@H](CCCCN)C(=O)N[C@@H](CCCNC(=N)N)C(=O)N[C@@H](CCC(=O)O)C(=O)N[C@@H](Cc1ccccc1)C(=O)N[C@@H](CCC(N)=O)C(=O)N[C@@H](CCCNC(=N)N)C(=O)N[C@H](C(=O)N[C@@H](CCCCN)C(=O)N[C@@H](CC(=O)O)C(=O)N[C@@H](Cc1ccccc1)C(=O)N[C@@H](CC(C)C)C(=O)N[C@@H](CCCNC(=N)N)C(=O)N[C@@H](CC(N)=O)C(=O)N[C@@H](CC(C)C)C(=O)N[C@H](C(=O)O)C(C)C)[C@@H](C)CC` (H-GIKEFKREFQRIKDFLRNLV-OH) [listing 2 of 2 here]: in the data set with CEM-SS, the CC50 came to 9.9 µM.
For the molecule `CC[C@H](C)[C@H](NC(=O)CN)C(=O)N[C@@H](CCCCN)C(=O)N[C@@H](CCC(=O)O)C(=O)N[C@@H](Cc1c[nH]c2ccccc12)C(=O)N[C@@H](CCCCN)C(=O)N[C@@H](CCCNC(=N)N)C(=O)N[C@H](C(=O)N[C@H](C(=O)N[C@@H](CCC(N)=O)C(=O)N[C@@H](CCCNC(=N)N)C(=O)N[C@H](C(=O)N[C@@H](CCCCN)C(=O)N[C@@H](CC(=O)O)C(=O)N[C@@H](Cc1ccccc1)C(=O)N[C@@H](CC(C)C)C(=O)N[C@@H](CCCNC(=N)N)C(=O)N[C@@H](CC(N)=O)C(=O)N[C@@H](CC(C)C)C(=O)N[C@H](C(=O)O)C(C)C)[C@@H](C)CC)C(C)C)[C@@H](C)CC` (H-GIKEWKRIVQRIKDFLRNLV-OH) [listing 1 of 2 here], the 50% effective concentration (EC50) in data set [1] came to 7.4 µM. In addition, in data set [2], the selectivity ratio is 3.2.
`CC[C@H](C)[C@H](NC(=O)CN)C(=O)N[C@@H](CCCCN)C(=O)N[C@@H](CCC(=O)O)C(=O)N[C@@H](Cc1c[nH]c2ccccc12)C(=O)N[C@@H](CCCCN)C(=O)N[C@@H](CCCNC(=N)N)C(=O)N[C@H](C(=O)N[C@H](C(=O)N[C@@H](CCC(N)=O)C(=O)N[C@@H](CCCNC(=N)N)C(=O)N[C@H](C(=O)N[C@@H](CCCCN)C(=O)N[C@@H](CC(=O)O)C(=O)N[C@@H](Cc1ccccc1)C(=O)N[C@@H](CC(C)C)C(=O)N[C@@H](CCCNC(=N)N)C(=O)N[C@@H](CC(N)=O)C(=O)N[C@@H](CC(C)C)C(=O)N[C@H](C(=O)O)C(C)C)[C@@H](C)CC)C(C)C)[C@@H](C)CC` (H-GIKEWKRIVQRIKDFLRNLV-OH) [listing 2 of 2 here]: the CC50 with CEM-SS amounted to 23.6 µM.
As to `CC[C@H](C)[C@H](NC(=O)CN)C(=O)N[C@@H](CCCCN)C(=O)N[C@@H](CCC(N)=O)C(=O)N[C@@H](Cc1ccccc1)C(=O)N[C@@H](CCCCN)C(=O)N[C@@H](CCCNC(=N)N)C(=O)N[C@H](C(=O)N[C@H](C(=O)N[C@@H](CCC(N)=O)C(=O)N[C@@H](CCCNC(=N)N)C(=O)N[C@H](C(=O)N[C@@H](CCCCN)C(=O)N[C@@H](CC(=O)O)C(=O)N[C@@H](Cc1ccccc1)C(=O)N[C@@H](CC(C)C)C(=O)N[C@@H](CCCNC(=N)N)C(=O)N[C@@H](CC(N)=O)C(=O)N[C@@H](CC(C)C)C(=O)N[C@H](C(=O)O)C(C)C)[C@@H](C)CC)C(C)C)[C@@H](C)CC` (H-GIKQFKRIVQRIKDFLRNLV-OH), the CC50 in the data set with CEM-SS worked out at 13.7 µM.
`CC(C)C[C@H](NC(=O)[C@H](CCCCN)NC(=O)[C@H](CCCCN)NC(=O)[C@H](Cc1ccccc1)NC(=O)[C@H](CCCCN)NC(=O)[C@H](CCCCN)NC(=O)[C@H](CCCNC(=N)N)NC(=O)[C@H](Cc1ccccc1)NC(=O)[C@H](CCCNC(=N)N)NC(=O)[C@H](CCCCN)NC(=O)[C@H](Cc1ccccc1)NC(=O)[C@H](CCCNC(=N)N)NC(=O)CN)C(=O)N[C@@H](Cc1ccccc1)C(=O)N[C@@H](CCCCN)C(=O)O` (H-GRFKRFRKKFKKLFK-OH): in the data set on CEM-SS, the CC50 is over 49.6 µM. The EC50 in data set [1] is over 49.6 µM.
As for `CC[C@H](C)[C@H](NC(=O)[C@H](CCCCN)NC(=O)[C@H](CCCCN)NC(=O)[C@H](Cc1ccccc1)NC(=O)[C@H](CC(C)C)NC(=O)[C@H](CCCCN)NC(=O)[C@H](CCCCN)NC(=O)[C@H](CC(C)C)NC(=O)[C@H](CCCCN)NC(=O)[C@H](CCCCN)NC(=O)[C@H](CCCNC(=N)N)NC(=O)[C@@H](NC(=O)[C@H](CCCNC(=N)N)NC(=O)[C@H](CCCCN)NC(=O)[C@H](Cc1ccccc1)NC(=O)[C@H](CCCNC(=N)N)NC(=O)CN)[C@@H](C)CC)C(=O)N[C@@H](CO)C(=O)O` (H-GRFKRIRKKLKKLFKKIS-OH) [listing 1 of 2 here], the EC50 in data set [1] is over 44 µM.
For `CC[C@H](C)[C@H](NC(=O)[C@H](CCCCN)NC(=O)[C@H](CCCCN)NC(=O)[C@H](Cc1ccccc1)NC(=O)[C@H](CC(C)C)NC(=O)[C@H](CCCCN)NC(=O)[C@H](CCCCN)NC(=O)[C@H](CC(C)C)NC(=O)[C@H](CCCCN)NC(=O)[C@H](CCCCN)NC(=O)[C@H](CCCNC(=N)N)NC(=O)[C@@H](NC(=O)[C@H](CCCNC(=N)N)NC(=O)[C@H](CCCCN)NC(=O)[C@H](Cc1ccccc1)NC(=O)[C@H](CCCNC(=N)N)NC(=O)CN)[C@@H](C)CC)C(=O)N[C@@H](CO)C(=O)O` (H-GRFKRIRKKLKKLFKKIS-OH) [listing 2 of 2 here], the CC50 in the data set on CEM-SS came to 2.79 µM.
On to `CC[C@H](C)[C@H](NC(=O)[C@H](CCCNC(=N)N)NC(=O)[C@H](CCC(N)=O)NC(=O)[C@@H](NC(=O)[C@@H](NC(=O)[C@H](CCCNC(=N)N)NC(=O)[C@@H](N)CCCCN)[C@@H](C)CC)C(C)C)C(=O)N[C@@H](CCCCN)C(=O)N[C@@H](CC(=O)O)C(=O)N[C@@H](Cc1ccccc1)C(=O)N[C@@H](CC(C)C)C(=O)N[C@@H](CCCNC(=N)N)C(=O)O` (H-KRIVQRIKDFLR-OH), for which the CC50 in the data set with CEM-SS was over 63.5 µM. Moreover, the EC50 in data set [1] is over 63.5 µM.
With `CC[C@H](C)[C@H](NC(=O)[C@H](CCCNC(=N)N)NC(=O)[C@H](CCC(N)=O)NC(=O)[C@@H](NC(=O)[C@@H](NC(=O)[C@H](CCCNC(=N)N)NC(=O)[C@@H](N)CCCCN)[C@@H](C)CC)C(C)C)C(=O)N[C@@H](CCCCN)C(=O)N[C@@H](CC(=O)O)C(=O)N[C@@H](Cc1ccccc1)C(=O)N[C@@H](CC(C)C)C(=O)N[C@@H](CCCNC(=N)N)C(=O)N[C@@H](CC(N)=O)C(=O)N[C@@H](CC(C)C)C(=O)N[C@H](C(=O)N1CCC[C@H]1C(=O)N[C@@H](CCCNC(=N)N)C(=O)N[C@H](C(=O)N[C@@H](CCC(=O)O)C(=O)N[C@@H](CO)C(=O)O)[C@@H](C)O)C(C)C` (H-KRIVQRIKDFLRNLVPRTES-OH), the CC50 in the data set with CEM-SS was over 40.5 µM. In data set [1], this molecule registered an EC50 of over 40.5 µM.
`CC[C@H](C)[C@H](NC(=O)[C@H](CCCCN)NC(=O)[C@H](CCC(=O)O)NC(=O)[C@H](CCCCN)NC(=O)[C@H](CO)NC(=O)[C@H](CCCCN)NC(=O)[C@H](CCCNC(=N)N)NC(=O)[C@H](CC(C)C)NC(=O)[C@H](CC(C)C)NC(=O)[C@H](CC(=O)O)NC(=O)CNC(=O)[C@H](CC(C)C)NC(=O)[C@@H](N)CC(C)C)C(=O)NCC(=O)N[C@@H](CCCCN)C(=O)N[C@@H](CCC(=O)O)C(=O)N[C@@H](Cc1ccccc1)C(=O)N[C@@H](CCCCN)C(=O)N[C@@H](CCCNC(=N)N)C(=O)N[C@H](C(=O)N[C@H](C(=O)N[C@@H](CCC(N)=O)C(=O)N[C@@H](CCCNC(=N)N)C(=O)O)C(C)C)[C@@H](C)CC` (H-LLGDLLRKSKEKIGKEFKRIVQR-OH): the CC50 in the data set with CEM-SS is over 35.4 µM. This molecule also had an EC50 in data set [1] of over 35.4 µM.
In the case of `CC[C@H](C)[C@H](NC(=O)[C@H](CCCCN)NC(=O)[C@H](CC(=O)O)NC(=O)[C@H](Cc1ccccc1)NC(=O)[C@H](CC(C)C)NC(=O)[C@@H](N)CCCNC(=N)N)C(=O)N[C@@H](CCCNC(=N)N)C(=O)N[C@@H](CCC(N)=O)C(=O)N[C@H](C(=O)N[C@H](C(=O)N[C@@H](CCCNC(=N)N)C(=O)N[C@@H](CCCCN)C(=O)N[C@@H](Cc1ccccc1)C(=O)O)[C@@H](C)CC)C(C)C` (H-RLFDKIRQVIRKF-OH), the CC50 with CEM-SS came out at 33.7 µM. Further, the EC50 in data set [1] is over 58.1 µM.
